Results: ChEMBL document CHEMBL4602659, “β,β-Dimethylacrylshikonin Induces Apoptosis in Melanoma Cell Lines by NOXA Upregulation” (J Nat Prod, 2020)
Active and inactive are the calls of the source. The calls are words filed in the database; no cut-off is given here.

How the values were obtained:
SBcl2 [1] = assay: Induction of apoptosis in human SBcl2 cells assessed as late apoptotic cells at IC50 concentration after 6 hrs by Annexin V/SYTOX Green based flow cytometric analysis (reference value: 14.91%); assay type: functional
MUGMel1 [2] = assay: Induction of apoptosis in human MUGMel1 cells assessed as increase in caspase -3 activity at IC50 concentration after 24 hrs by Alexa Fluor 647 antibody based flow cytometric analysis; assay type: functional, cell-based
MRC5 [3] = assay: Cytotoxicity against human MRC5 cells assessed as reduction in cell viability after 48 hrs by EZ4U reagent based spectrophotometric method; assay type: functional
SBcl2 [4] = assay: Induction of apoptosis in human SBcl2 cells assessed as necrotic cells at IC50 concentration after 6 hrs by Annexin V/SYTOX Green based flow cytometric analysis (reference value: 0.17%); assay type: functional
MUGMel2 [5] = assay: Induction of apoptosis in human MUGMel2 cells assessed as increase in caspase -3 activity at IC50 concentration after 24 hrs by Alexa Fluor 647 antibody based flow cytometric analysis; assay type: functional, cell-based
MUGMel2 [6] = assay: Induction of apoptosis in human MUGMel2 cells assessed as necrotic cells at IC50 concentration after 24 hrs by Annexin V/SYTOX Green based flow cytometric analysis (reference value: 1.1%); assay type: functional
WM164 [7] = assay: Induction of apoptosis in human WM164 cells assessed as late apoptotic cells at IC50 concentration after 6 hrs by Annexin V/SYTOX Green based flow cytometric analysis (reference value: 1.41%); assay type: functional
SBcl2 [8] = assay: Induction of apoptosis in human SBcl2 cells assessed as early apoptotic cells at IC50 concentration after 6 hrs by Annexin V/SYTOX Green based flow cytometric analysis (reference value: 3.77%); assay type: functional
WM793 [9] = assay: Cytotoxicity against human WM793 cells harboring BRAF V600E mutant assessed as reduction in cell viability after 72 hrs by EZ4U reagent based spectrophotometric method; assay type: functional; details: WM793, 72 h
SBcl2 [10] = assay: Induction of apoptosis in human SBcl2 cells assessed as increase in caspase -3 activity at IC50 concentration after 24 hrs by Alexa Fluor 647 antibody based flow cytometric analysis; assay type: functional, cell-based
SBcl2 [11] = assay: Induction of apoptosis in human SBcl2 cells assessed as up regulation of NOXA at IC50 concentration after 6 to 24 hrs by RT-qPCR analysis; assay type: functional, cell-based
MUGMel1 [12] = assay: Cytotoxicity against human MUGMel1 cells assessed as reduction in cell viability after 72 hrs by EZ4U reagent based spectrophotometric method; assay type: functional; details: MUGMel1, 72 h
MUGMel1 [13] = assay: Induction of apoptosis in human MUGMel1 cells assessed as necrotic cells at IC50 concentration after 6 hrs by Annexin V/SYTOX Green based flow cytometric analysis (reference value: 0.39%); assay type: functional
WM793 [14] = assay: Induction of apoptosis in human WM793 cells assessed as effect on PUMA protein expression at IC50 concentration after 24 hrs by Western blot analysis; assay type: functional, cell-based
MUGMel2 [15] = assay: Induction of apoptosis in human MUGMel2 cells assessed as effect on BAX mRNA expression at IC50 concentration after 6 to 24 hrs by RT-qPCR analysis; assay type: functional, cell-based
MUGMel2 [16] = assay: Induction of apoptosis in human MUGMel2 cells assessed as necrotic cells at IC50 concentration after 6 hrs by Annexin V/SYTOX Green based flow cytometric analysis (reference value: 0.3%); assay type: functional
MUGMel1 [17] = assay: Induction of apoptosis in human MUGMel1 cells assessed as effect on BAD protein expression at IC50 concentration after 24 hrs by Western blot analysis; assay type: functional, cell-based
WM793 [18] = assay: Induction of apoptosis in human WM793 cells assessed as viable cells at IC50 concentration after 6 hrs by Annexin V/SYTOX Green based flow cytometric analysis (reference value: 96.2%); assay type: functional
WM164 [19] = assay: Induction of apoptosis in human WM164 cells assessed as necrotic cells at IC50 concentration after 6 hrs by Annexin V/SYTOX Green based flow cytometric analysis (reference value: 0.81%); assay type: functional
MUGMel2 [20] = assay: Induction of apoptosis in human MUGMel2 cells assessed as effect on BAD protein expression at IC50 concentration after 24 hrs by Western blot analysis; assay type: functional, cell-based
WM793 [21] = assay: Induction of apoptosis in human WM793 cells assessed as effect on BAD protein expression at IC50 concentration after 24 hrs by Western blot analysis; assay type: functional, cell-based
WM164 [22] = assay: Induction of apoptosis in human WM164 cells assessed as effect on PUMA protein expression at IC50 concentration after 24 hrs by Western blot analysis; assay type: functional, cell-based
WM164 [23] = assay: Induction of apoptosis in human WM164 cells assessed as up regulation of NOXA at IC50 concentration after 6 to 24 hrs by RT-qPCR analysis; assay type: functional, cell-based
MRC5 [24] = assay: Cytotoxicity against human MRC5 cells assessed as reduction in cell viability after 24 hrs by EZ4U reagent based spectrophotometric method; assay type: functional; details: MRC5, 24 h
WM164 [25] = assay: Induction of apoptosis in human WM164 cells assessed as effect on BAD protein expression at IC50 concentration after 24 hrs by Western blot analysis; assay type: functional, cell-based
MUGMel1 [26] = assay: Induction of apoptosis in human MUGMel1 cells assessed as increase in caspase -3 activity at IC50 concentration after 24 hrs in presence of caspase -inhibitor by Alexa Fluor 647 antibody based flow cytometric analysis; assay type: functional, cell-based
B16-F0 = assay: Cytotoxicity against mouse B16F0 cells assessed as reduction in cell viability after 24 hrs by MTT assay; assay type: functional, cell-based; details: B16F0, 24 h
WM164 [27] = assay: Induction of apoptosis in human WM164 cells assessed as increase in caspase -3 activity at IC50 concentration after 24 hrs by Alexa Fluor 647 antibody based flow cytometric analysis; assay type: functional, cell-based
WM164 [28] = assay: Induction of apoptosis in human WM164 cells assessed as viable cells at IC50 concentration after 6 hrs by Annexin V/SYTOX Green based flow cytometric analysis (reference value: 94.77%); assay type: functional
WM793 [29] = assay: Induction of apoptosis in human WM793 cells assessed as necrotic cells at IC50 concentration after 6 hrs by Annexin V/SYTOX Green based flow cytometric analysis (reference value: 0.32%); assay type: functional
WM793 [30] = assay: Cytotoxicity against human WM793 cells harboring BRAF V600E mutant assessed as reduction in cell viability after 24 hrs by EZ4U reagent based spectrophotometric method; assay type: functional; details: WM793, 24 h
SBcl2 [31] = assay: Cytotoxicity against human SBcl2 cells harboring NRAS Q61I mutant assessed as reduction in cell viability after 48 hrs by EZ4U reagent based spectrophotometric method; assay type: functional; details: SBcl2, 48 h
MUGMel1 [32] = assay: Induction of apoptosis in human MUGMel1 cells assessed as viable cells at IC50 concentration after 6 hrs by Annexin V/SYTOX Green based flow cytometric analysis (reference value: 96.01%); assay type: functional
SBcl2 [33] = assay: Antitumour activity against human SBcl2 cells xenografted in NU(NCr)-Foxn1 mouse assessed as increase in caspase -activity at 2 ug/g administered for three consecutive days with 1 day interval for four cycle by hematoxylin and eosin staining based microscopic analysis; assay type: functional, cell-based
MUGMel1 [34] = assay: Cytotoxicity against human MUGMel1 cells assessed as reduction in cell viability after 24 hrs by EZ4U reagent based spectrophotometric method; assay type: functional; details: MUGMel1, 24 h
MUGMel2 [35] = assay: Induction of apoptosis in human MUGMel2 cells assessed as up regulation of NOXA protein expression at IC50 concentration after 24 hrs by Western blot analysis; assay type: functional, cell-based

CC(C)=CC[C@@H](OC(=O)C=C(C)C)C1=CC(=O)c2c(O)ccc(O)c2C1=O [DIMETHYLACRYLSHIKONIN]
Activity (SBcl2 [1]): 70.21% | Activity (MUGMel1 [2]): Active | IC50 (MRC5 [3]): Not Active | Activity (SBcl2 [4]): 0.06% | Activity (MUGMel2 [5]): Active | Activity (MUGMel2 [6]): 0.16% | Activity (WM164 [7]): 8.65% | Activity (SBcl2 [8]): 16.44% | IC50 (WM793 [9]): 0.7 µM | Activity (SBcl2 [10]): Active | Activity (SBcl2 [11]): Active | IC50 (MUGMel1 [12]): 1 µM | Activity (MUGMel1 [13]): 0.11% | Activity (WM793 [14]): inactive | Activity (MUGMel2 [15]): inactive | Activity (MUGMel2 [16]): 0.39% | Activity (MUGMel1 [17]): inactive | Activity (WM793 [18]): 88.54% | Activity (WM164 [19]): 0.24% | Activity (MUGMel2 [20]): inactive | Activity (WM793 [21]): inactive | Activity (WM164 [22]): inactive | Activity (WM164 [23]): Active | IC50 (MRC5 [24]): 9.5 µM | Activity (WM164 [25]): inactive | Activity (MUGMel1 [26]): inactive | IC50 (B16-F0): 1.2 to 5.1 µM | Activity (WM164 [27]): Active | Activity (WM164 [28]): 88.63% | Activity (WM793 [29]): 0.3% | IC50 (WM793 [30]): 1.2 µM | IC50 (SBcl2 [31]): 1.1 µM | Activity (MUGMel1 [32]): 94.02% | Activity (SBcl2 [33]): Active | IC50 (MUGMel1 [34]): 1.9 µM | Activity (MUGMel2 [35]): Active
